The text below walks through data of patent US7939517B2, “1,4,6-androstatriene-3,17-dione (“ATD”) for therapeutic uses” (priority 2004, dated 2011).

For test [1], the target named is T1, aromatase enzyme (Homo sapiens, UniProt P11511).
T1 sequence (P11511 1-503): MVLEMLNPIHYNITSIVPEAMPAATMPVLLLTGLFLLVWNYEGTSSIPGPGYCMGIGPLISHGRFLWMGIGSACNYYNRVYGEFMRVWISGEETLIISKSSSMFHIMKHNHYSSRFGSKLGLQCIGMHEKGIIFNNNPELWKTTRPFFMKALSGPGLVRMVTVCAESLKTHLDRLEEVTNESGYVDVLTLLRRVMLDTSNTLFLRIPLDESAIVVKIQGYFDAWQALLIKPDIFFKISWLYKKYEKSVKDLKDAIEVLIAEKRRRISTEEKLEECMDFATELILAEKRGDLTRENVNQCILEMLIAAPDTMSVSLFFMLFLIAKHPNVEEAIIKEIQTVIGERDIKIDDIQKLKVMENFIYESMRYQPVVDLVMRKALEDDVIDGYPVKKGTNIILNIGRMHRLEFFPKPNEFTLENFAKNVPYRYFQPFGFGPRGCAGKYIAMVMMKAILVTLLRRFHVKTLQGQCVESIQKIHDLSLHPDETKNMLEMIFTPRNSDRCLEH
The following applies: inhibitor binding to the aromatase enzyme; from "recent studies"; cited from earlier work.

Test [2] has as its target T1, aromatase enzyme. Kind of test: aromatase enzyme inhibition (Ki). In kind it is biochemical. The method, then: ATD acts as a suicide substrate by irreversibly binding to the aromatase enzyme and shutting down its activity. Because it is a non-androgenic compound, ATD has fewer side effects associated with anabolic/androgenic steroid use. […] A lower Ki value means the inhibitor binds more tightly to the enzyme and yields greater potency. […] Because it is administered in smaller doses, costs of use of ATD may also be lower. The savings may be passed on to the consumer and/or provide greater profits to the manufacturer. Additionally, with oral or percutaneous/transdermal doses of 25 mg to 150 mg per day in men, ATD will cause a significant increase in endogenous androgen levels with little or no decrease in endogenous estrogen.

As a reminder, the Ki is a dissociation constant, usually derived from enzyme kinetics or from competition with a known ligand.

Take `C[C@]12CCC(=O)C=C1C(=O)C[C@@H]1[C@@H]2CC[C@]2(C)C(=O)CC[C@@H]12` [AT, androst-4-ene-3,6,17-trione]: the Ki at aromatase enzyme [1] was 430 nM.
As for `C[C@]12C=CC(=O)C=C1C=C[C@@H]1[C@@H]2CC[C@]2(C)C(=O)CC[C@@H]12` [ATD, 1,4,6-androstatriene-3,17-dione], at aromatase enzyme [2], the “ratio of the Ki values (AT concentration relative to ATD for the same effect)” value is 2.39 times.
